The results in this text go back to patent US7214507B2, “Plant enzymes for bioconversion” (Plant Research International B.V., priority 2001, dated 2007).

In one data set the target is T1, (+)-costunolide synthase (Cichorium intybus, UniProt G3GBK0).
T1 construct: A cell free extract of chicory roots was prepared from the frozen material; from tissue; host or cells: chicory roots, desalted 20,000 g supernatant
T1 sequence (G3GBK0 1-494): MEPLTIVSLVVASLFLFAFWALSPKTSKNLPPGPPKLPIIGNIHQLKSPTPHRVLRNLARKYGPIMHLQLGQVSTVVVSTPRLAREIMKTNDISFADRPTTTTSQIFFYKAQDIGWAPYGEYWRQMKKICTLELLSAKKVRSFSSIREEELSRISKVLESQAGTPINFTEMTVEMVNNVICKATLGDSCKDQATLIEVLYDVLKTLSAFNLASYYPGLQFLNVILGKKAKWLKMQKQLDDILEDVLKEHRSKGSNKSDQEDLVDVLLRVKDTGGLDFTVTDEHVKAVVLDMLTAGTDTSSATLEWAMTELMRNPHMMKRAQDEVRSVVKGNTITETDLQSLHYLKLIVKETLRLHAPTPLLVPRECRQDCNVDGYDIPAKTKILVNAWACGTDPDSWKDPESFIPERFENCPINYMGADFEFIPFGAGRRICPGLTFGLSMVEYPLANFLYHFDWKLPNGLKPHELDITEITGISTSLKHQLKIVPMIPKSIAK
In words: (+)-Costunolide synthase activity, 20,000 g chicory root supernatant with germacrene acid. In kind it is biochemical, Cichorium intybus L. Conditions: for Percentage Enzyme Activity ± SD, (+)-costunolide synthase: addition at 1 mM, 100% = sum of dehydrosaussurea lactone, saussurea lactone and leucodin peaks with 1 mM NADPH; for Conversion of substrate analogues by the (+)-costunolide synthase (in words): 20,000 g supernatant, NADPH. How it is done: A cell free extract of chicory roots was prepared from the frozen material in the same way as described for isolation of the germacrene A hydroxylase (Example 1), but MgCl2 was not added to the extraction buffer since the accompanying (+)-germacrene A synthase activity was not essential for the detection of (+)-costunolide synthase activity. […] DTT was omitted from the assay buffer, because SH-groups present in DTT might undergo an “Michael-type addition” to the C11–C13 exocyclic double bond of (+)-costunolide Kupchan et al., 1970). […] Incubations were also done with boiled desalted supernatant and in the absence of NADPH. The experiments were repeated with elema-1,3,11(13)-trien-12-oic acid (FIG. 2, 9) and a mixture of α- and γ-costic acid (14) that might serve as substrate analogues for the germacrene acid (4). After 1 h of incubation at 30° C., the reactions were stored in the freezer.
The organic phase was filtered through a glass-wool plugged (dimethyl chlorosilane-treated glasswool; Chrompack) Pasteur pipette that contained 0.45 g of silica and a little anhydrous MgSO4. […] Samples of 2 μL were analysed by GC-MS using an injection port temperature of 320° C. to provoke Cope rearrangement of (+)-costunolide (5). Mass spectra were recorded at 70 eV scanning from 35 to 300 atomic mass units; the GC oven temperature was programmed as described before (de Kraker et al., 1998).
To determine whether the formation of (+)-costunolide (5) from germacrene acid (4) was catalysed by a cytochrome P450-enzyme, the effect of various established cytochrome P450-inhibitors (cytochrome C, metyrapone, clotrimazole, micozanole, and amino-benzotriazole) on this reaction were tested, as well as the effect of CO or an argon atmosphere. The cofactor dependence was also investigated, i.e. NAD(P)^+ or NADH was added instead of NADPH. Experiments were carried out in a similar manner as described for the germacrene A hydroxylase in Example I using a 20,000 g supernatant and 5 μL of 0.2 mM cis-nerolidol as internal standard. Blue-light reversal of CO-inhibition was investigated with gas-mixtures of 10% O2 plus 90% N2 (blank) and 10% O2 plus 90% CO.

The test system of data set [1] is (+)-costunolide reductase activity. The data set is described as follows: Formation of 11(S),13-dihydrocostunolide from (+)-costunolide by 20,000 g chicory root supernatant. In kind it is biochemical, Cichorium intybus L. The following applies: for Reduction of the C11–C13 exocyclic double bond (in words): 20 μM substrate, NADPH. How it is done: (§1) Incubations were also done with boiled desalted supernatant and in the absence of NADPH. The experiments were repeated with elema-1,3,11(13)-trien-12-oic acid (FIG. 2, 9) and a mixture of α- and γ-costic acid (14) that might serve as substrate analogues for the germacrene acid (4). After 1 h of incubation at 30° C., the reactions were stored in the freezer.
(§2) The organic phase was filtered through a glass-wool plugged (dimethyl chlorosilane-treated glasswool; Chrompack) Pasteur pipette that contained 0.45 g of silica and a little anhydrous MgSO4. […] Samples of 2 μL were analysed by GC-MS using an injection port temperature of 320° C. to provoke Cope rearrangement of (+)-costunolide (5).
(§3) Incubations as described for the germacrene acid were also done with (+)-costunolide (30 μM) to test whether any further enzymatic conversion of this compound would occur during the incubation of germacrene acid. Parthenolide (20 μM) (FIG. 9, 17) was incubated as well since it might be an intermediate in the formation of guaianolides. […] The effect of established cytochrome P450 inhibitors and CO on the conversion of (+)-costunolide was studied, just as the effect of various pyridine nucleotide cofactors and an argon atmosphere.

Another data set relates to leucodin biosynthesis. In words: Formation of leucodin from (+)-costunolide by 20,000 g chicory root supernatant. In kind it is biochemical, Cichorium intybus L. How it is done:
as §1, §2, §3

The subject of data set [2] is (+)-germacrene A hydroxylase. The data set is described as follows: Conversion of sesquiterpenes by a microsomal pellet of chicory in the presence of NADPH. The following applies: for Conversion by the (+)-germacrene A hydroxylase containing microsomal pellet (in words): NADPH, microsomal pellet from chicory roots.
Method: During the whole procedure the plant material was kept on ice as much as possible. After 5 times several seconds of mixing, the slurry was transferred to the cheesecloth with an additional 10 ml of extraction buffer. The cheesecloth was squeezed out and the filtrate was centrifuged (Sigma 2K15) for 20 minutes at 20,000 g and 4° C. The supernatant was poured over a funnel filled with glass wool. […] The resulting microsomal pellets (about 6) were stored under argon at −80° C.
Before incubation, 10 pellets were pottered in 30 mL of assay buffer consisting of 25 mM Tris pH 7.5), 2 mM DTT, 1 mM ascorbic acid, 5 μM FAD, 5 μM FMN and 10% (v/v) glycerol. The enzyme suspension was divided in 1 mL aliquots and incubated with 5 μL substrate solution in the presence of a 1 mM NADPH-regenerating system that consisted of 1 mM NADPH, 5 mM glucose-6-phosphate, and 1.2 IU glucose-6-phosphate dehydrogenase (all from Sigma). The initial concentration of substrate in each assay was 45 μM and all were done in duplicate. […] After 60 minutes the incubations were stopped by storing them at −20° C. in a freezer.
The enzyme assays were extracted 2 times with 1 mL 20% (v/v) ether in pentane, after the addition of 5 μM cis-nerolidol (Fluka). The organic phase was filtered through a glasswool-plugged (dimethyl chlorosilane-treated, Chrompack) Pasteur pipette that contained 0.4 gram of silica and a little anhydrous MgSO4. The pipette was rinsed with 1.5 mL ether and the extract was concentrated to approximately 50 μL under a stream of nitrogen.
Data set [3] relates to (+)-germacrene A hydroxylase. In words: Effect of the used solvent for (+)-γ-gurjunene on enzyme activity. Conditions: peak height of γ-gurjunene alcohol relative to the internal standard (5 nmol cis-nerolidol); 5 μL of 10 mM γ-gurjunene in the solvent. In kind it is biochemical, Cichorium intybus L. The procedure:
Before experiments as described in this example were started, it was tested which organic solvent could be best used to dissolve the substrate. […] Karp et al., 1990).

The mark [4] stands for this setting: atmosphere: 80% CO + 20% O2 or argon, air = 100%.
[5] abbreviates: pyridine nucleotide cofactor 1 mM, substrate (+)-costunolide.
Where [6] appears, read: inhibitor 100 μM, control = 100%.
The mark [7] stands for this setting: inhibitor 10 μM, DMSO (1%) control = 100%.

Entries after “also recorded” stand apart in the source; their conditions may differ.

`[Ar]` [argon]: at (+)-costunolide synthase (1 mM NADPH + argon atmosphere), the “Percentage Enzyme Activity ± SD, (+)-costunolide synthase, argon atmosphere” value is reported as 0 ± 0%. The “Percentage Enzyme Activity ± SD, Dihydrocostunolide (20)” value (shortened to “Percentage Enzyme Activity ± SD … (20)”) in data set [1] (setting [4]) came to 134 ± 6%. In addition, in the data set on leucodin biosynthesis (setting [4]), the “Percentage Enzyme Activity ± SD, Leucodin (22)” value is on record as 0 ± 0%. Consider `C=C(C)[C@H]1CC=C(C)CC1` [limonene], for which the “Conversion by the (+)-germacrene A hydroxylase containing microsomal pellet (in words)” value in data set [2] was “hardly converted; also recorded: did hardly occur”.

Regarding `NC(=O)C1=CN([C@@H]2O[C@H](COP(=O)(O)OP(=O)(O)OC[C@H]3O[C@@H](n4cnc5c(N)ncnc54)[C@H](O)[C@@H]3O)[C@@H](O)[C@H]2O)C=CC1` [NADH], the “Percentage Enzyme Activity ± SD, (+)-costunolide synthase” value at (+)-costunolide synthase is on record as 7 ± 2%. In addition, the “Percentage Enzyme Activity ± SD … (20)” value in data set [1] (setting [5]) was 14 ± 2%. Moreover, the “Percentage Enzyme Activity ± SD, Leucodin (22)” value in the data set with leucodin biosynthesis (setting [5]) was found to be 0 ± 0%.

Consider `CC(C)(C(=O)c1cccnc1)c1cccnc1` [metyrapone], for which the “Reduction of the amount of measurable enzymatic products of germacrene acid” value (from here on “Reduction of the amount … of germacrene acid”) on (+)-costunolide synthase (inhibitor 1 mM) is given as 78%. The “Percentage Enzyme Activity ± SD … (20)” value in data set [1] (setting [6]) amounted to 87 ± 11%. For the same compound, the “Percentage Enzyme Activity ± SD, Leucodin (22)” value in the data set with leucodin biosynthesis (setting [6]) was 70 ± 16%. Consider `[C-]#[O+]` [CO], for which the “Effect on the produced sum of (+)-costunolide, 11(S),13-dihydrocostunolide and leucodin (in words)” value at (+)-costunolide synthase (90% CO + 10% O2, blue light 450 nm) is recorded as “inhibitory effect”. For the same compound, in data set [1] (setting [4]), the “Percentage Enzyme Activity ± SD … (20)” value was determined as 140 ± 4%. Moreover, the “Formation of leucodin from (+)-costunolide, effect of inhibitors (in words)” value in the data set with leucodin biosynthesis is “strongly inhibited”. For the same compound, the “Percentage Enzyme Activity ± SD, Leucodin (22)” value in the data set on leucodin biosynthesis (setting [4]) was found to be 8 ± 1%.

As for `CC(C)O` [iso-propanol], the “Enzyme activity ± SD” value in data set [3] is reported as 1.76 ± 0.16. `C=C(C)C1CC=C(C)CC1` (single isomer, unassigned; (+)) [(+)-limonene]: in data set [2], the “Conversion by the (+)-germacrene A hydroxylase containing microsomal pellet (in words)” value was “Some conversion”. The same measure, in the same setting: the value for (−)-limonene was “Some conversion”. With `C=CC1(C)CCC(C(=C)C(=O)O)CC1C(=C)C` (centres unmarked) [elema-1,3,11(13)-trien-12-oic acid], the “Conversion of substrate analogues by the (+)-costunolide synthase (in words)” value (shortened to “Conversion of substrate analogues”) at (+)-costunolide synthase is “no detectable conversion; also recorded: not capable of converting”.

As to `C=C1CC[C@H]2C(=C)CC[C@H]3C(=C)C(=O)O[C@@H]3[C@@H]12` [dehydrocostus lactone], the “Reduction of the C11–C13 exocyclic double bond (in words)” value in data set [1] is “not capable of doing the same”; in data set [1] (listed as dehydrocostuslacton), “not reduced”. Regarding `Clc1ccccc1C(c1ccccc1)(c1ccccc1)n1ccnc1` [clotrimazole], the “Reduction of the amount … of germacrene acid” value on (+)-costunolide synthase (inhibitor 100 μM) is reported as 97%. In addition, in data set [1] (setting [7]), the “Percentage Enzyme Activity ± SD … (20)” value is 119 ± 9%. Further, the “Percentage Enzyme Activity ± SD, Leucodin (22)” value with leucodin biosynthesis (setting [7]) is 0 ± 0%. Take `C=C(C)[C@@H]1CC[C@@]2(C)CCC[C@](C)(O)[C@@H]2C1` [neointermedeol]: the “Less efficiently hydroxylated than β-selinene” value in data set [2] was determined as 15 fold.

For `C=C(C(=O)O)[C@@H]1CC[C@@]2(C)CCCC(C)=C2C1` [γ-costic acid], on (+)-costunolide synthase, the “Conversion of substrate analogues” value is “not converted either”. Take `NC(=O)C1=CN([C@@H]2O[C@H](COP(=O)(O)OP(=O)(O)OC[C@H]3O[C@@H](n4cnc5c(N)ncnc54)[C@H](OP(=O)(O)O)[C@@H]3O)[C@@H](O)[C@H]2O)C=CC1` [NADPH]: the “Percentage Enzyme Activity ± SD, (+)-costunolide synthase” value at (+)-costunolide synthase is 100 ± 8%. For the same compound, the “Percentage Enzyme Activity ± SD … (20)” value in data set [1] (setting [5]) is on record as “^a100 ± 3 ^ %”. Besides, the “Percentage Enzyme Activity ± SD, Leucodin (22)” value in the data set on leucodin biosynthesis (setting [5]) is on record as “^a100 ± 10 ^ %”. As for `Nn1nnc2ccccc21` [aminobenzotriazole], at (+)-costunolide synthase (inhibitor 100 μM), the “Reduction of the amount … of germacrene acid” value is on record as 44%. Besides, the “Percentage Enzyme Activity ± SD … (20)” value in data set [1] (setting [7]) is listed as 75 ± 8%. Moreover, the “Percentage Enzyme Activity ± SD, Leucodin (22)” value in the data set with leucodin biosynthesis (setting [7]) was determined as 86 ± 33%. In the case of `C[S+](C)[O-]` [DMSO], the “Enzyme activity ± SD” value in data set [3] came to 1.80 ± 0.09. Same read-out and setting: the value for `CCCCCC` [hexane] was under 0.1. Take `CC(C)=C1C/C=C(\C)CC/C=C(\C)CC1=O` [germacrone]: the “Conversion by the (+)-germacrene A hydroxylase containing microsomal pellet (in words)” value in data set [2] is “not converted; also recorded: not accepted as a substrate; also recorded: not hydroxylated”. With `C=C(C)[C@H]1C/C=C(\C)CC/C=C(\C)CC1` [(+)-germacrene A], the “Subsequent oxidations into germacrene aldehyde and acid, share of the produced germacrene alcohol” value in data set [2] (microsomal pellet, pH 7.5, NADPH-regenerating system) is on record as “approx. 15%”. As to “cytochrome C: established cytochrome P450 inhibitor”, in the data set with (+)-costunolide synthase (inhibitor 100 μM), the “Reduction of the amount … of germacrene acid” value was “no enzymatic products of germacrene acid (4) were measured”. Besides, the “Percentage Enzyme Activity ± SD … (20)” value in data set [1] (setting [6]) is 105 ± 5%. In addition, in the data set with leucodin biosynthesis (setting [6]), the “Percentage Enzyme Activity ± SD, Leucodin (22)” value is on record as 0 ± 0%. Turning to (−)-(α)-gurjunene, the “Conversion by the (+)-germacrene A hydroxylase containing microsomal pellet (in words)” value in data set [2] is “not converted”. `CCO` [ethanol]: the “Enzyme activity ± SD” value in data set [3] is listed as 1.87 ± 0.01. Regarding `C=C(C(=O)O)[C@@H]1CC[C@@]2(C)CCC=C(C)[C@@H]2C1` [α-costic acid], the “Conversion of substrate analogues” value on (+)-costunolide synthase was “not capable of converting”. As for `Clc1ccc(COC(Cn2ccnc2)c2ccc(Cl)cc2Cl)c(Cl)c1` (centres unmarked) [miconazole], the “Reduction of the amount … of germacrene acid” value on (+)-costunolide synthase (inhibitor 100 μM) stood at 71%. In addition, the “Percentage Enzyme Activity ± SD … (20)” value in data set [1] (setting [7]) amounted to 100 ± 5%. Also, the “Percentage Enzyme Activity ± SD, Leucodin (22)” value in the data set on leucodin biosynthesis (setting [7]) turned out to be 0 ± 0%.

With `CC1=CC[C@@]23[C@@H]([C@@H]12)[C@H](C(C)C)CC[C@H]3C` [(−)-(α)-Cubebene], in data set [2], the “Conversion by the (+)-germacrene A hydroxylase containing microsomal pellet (in words)” value is reported as “not converted”.

As to `CCCCC` [pentane], in data set [3], the “Enzyme activity ± SD” value worked out at 0.47 ± 0.07. Take `C=C(C)[C@@H]1CC[C@@]2(C)CCCC(=C)[C@@H]2C1` [(+)-β-selinene]: the “Share of the added substrate that was hydroxylated” value in data set [2] (50 nmol added) is given as “Approximately 30%”.
